Laboratory results reported in patent US20250235460A1, “COMBINATION THERAPY USING GLUCOSE-DEPENDENT INSULINOTROPIC POLYPEPTIDE RECEPTOR ANTAGONIST COMPOUNDS AND GLP-1 RECEPTOR AGONIST COMPOUNDS” (Pfizer Inc., priority 2024, published 2025).
Read-outs that look alike come from different tables or passages of the source.

Molecular target: T1, human Glucose-dependent Insulinotropic Polypeptide Receptor (hGIPR) (Homo sapiens, UniProt P48546)
T1 sequence (P48546 22-466): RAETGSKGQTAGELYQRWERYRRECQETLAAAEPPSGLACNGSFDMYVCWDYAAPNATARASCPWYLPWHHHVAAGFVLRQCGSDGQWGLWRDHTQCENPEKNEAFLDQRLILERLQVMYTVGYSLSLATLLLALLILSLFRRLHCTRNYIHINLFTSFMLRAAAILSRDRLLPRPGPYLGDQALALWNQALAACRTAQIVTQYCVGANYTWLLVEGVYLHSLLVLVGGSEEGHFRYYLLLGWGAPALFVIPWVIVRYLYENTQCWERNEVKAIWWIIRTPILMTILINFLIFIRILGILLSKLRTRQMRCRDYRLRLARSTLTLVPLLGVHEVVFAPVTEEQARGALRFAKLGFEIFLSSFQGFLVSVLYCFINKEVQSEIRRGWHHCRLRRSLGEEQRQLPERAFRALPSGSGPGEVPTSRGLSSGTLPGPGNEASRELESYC
Assay: Functional in vitro GIPR antagonist potency assay (cAMP HTRF, CHO-K1 cells stably expressing hGIPR, hGIP stimulation at EC80)
Assay type: cell-based
Method: The functional in vitro antagonist potency for test compounds was determined by monitoring intracellular cyclic adenosine monophosphate (cAMP) levels in Chinese hamster ovary (CHO)—K1 cells stably expressing the human Glucose-dependent Insulinotropic Polypeptide Receptor (hGIPR). Following agonist activation, hGIPR associates with the G-protein complex causing the Gas subunit to exchange bound guanosine diphosphate (GDP) for guanosine triphosphate (GTP), followed by dissociation of the Gas-GTP complex. The activated Gas subunit can couple to downstream effectors to regulate the levels of second messengers or cAMP within the cell. Thereby, determination of intracellular cAMP levels allows for pharmacological characterization. Intracellular cAMP levels are quantitated using a homogenous assay utilizing the Homogeneous Time Resolved Fluorescence (HTRF) technology from Perkin Elmer. […] The two entities compete for binding to a monoclonal anti-cAMP antibody labeled with cryptate. The specific signal is inversely proportional to the concentration of cAMP in the cells.
Test compounds were solubilized to a concentration of 30 mM in 100% dimethyl sulfoxide (DMSO). An 11-point dilution series using 1 in 3.162-fold serial dilutions was created in 100% DMSO with a top concentration of 8 mM. […]
Frozen assay-ready vials (at 1×10^7 cells/vial) of CHO-K1 cells stably expressing the Gs-coupled human GIPR receptor (Eurofins, DiscoverX, Cat No. 95-0146C2) were thawed, counted, and resuspended in assay buffer consisting of Hank's Balanced Salt Solution (HBSS, Lonza Cat No. 10-527) containing 20 mM (4-(2-hydroxyethyl)-1-piperazineethanesulfonic acid (HEPES, Lonza, Cat No. 17-737E), 0.1% bovine serum albumin (BSA, Sigma, Cat No. A7979), and 200 μM 3-isobutyl-1-methylxanthine (IBMX, Sigma, Cat No. 15879) at a density of 4×10^5 cells/mL. Cells were added to assay plate (5 μL/well of 4×10^5 cells/mL stock for 2,000 cells/well final) containing 50 nL of 200×FAC test compound, and incubated at 37° C. […] ([…]: 5% CO2), after which intracellular cAMP levels were quantified as per Perkin Elmer's protocol (5 μL of d2 and then 5 μL cryptate, incubated for 1 hour at room temperature). Emission spectra of samples were measured on a Pherastar plate reader (BMG Labtech Inc) using a HTRF protocol (excitation, 320 nm; emission, 665 nm/620 nm).
([…]: 5% CO2), with a micro-clime lid. […] ([…]: 5% CO2), after which intracellular cAMP levels were quantified and samples measured as described previously. […]
Data were analyzed using the ratio of fluorescence intensity at 620 and 665 nm for each well, extrapolated from the cAMP standard curve to express data as nanomolar (nM) cAMP for each well. […]

[1] = CHO-K1 cells stably expressing human GIPR, inhibition of hGIP (EC80)-stimulated cAMP, 2 h preincubation

Compound | IC50 [nM] | IC50 [1] [nM]
CC(C)c1ccc(NC(=O)N2CC[C@H](C)[C@@H]2C(=O)Nc2ccc(-c3ccc(C(=O)O)cc3)cc2)cc1 (single isomer, unassigned) [Compound 34A, 4′-{[(3S)-3-Methyl-1-{[4-(propan-2-yl)phenyl]carbamoyl}-D-prolyl]amino}[1,1′-biphenyl]-4-carboxylic acid or 4′-{[(3R)-3-Methyl-1-{[4-(propan-2-yl)phenyl]carbamoyl}-L-prolyl]amino}[1,1′-biphenyl]-4-carboxylic acid] | 10 | –
CC(C)c1ccc(NC(=O)N2CC[C@@H](C)[C@@H]2C(=O)Nc2ccc(-c3ccc(C(=O)O)cc3)cc2)cc1 (single isomer, unassigned) [Compound 35A, 4′-{[(3R)-3-Methyl-1-{[4-(propan-2-yl)phenyl]carbamoyl}-D-prolyl]amino}[1,1′-biphenyl]-4-carboxylic acid or 4′-{[(3S)-3-Methyl-1-{[4-(propan-2-yl)phenyl]carbamoyl}-L-prolyl]amino}[1,1′-biphenyl]-4-carboxylic acid] | 4.6 | –
Cc1cc(NC(=O)N2CCC[C@@H]2C(=O)Nc2ccc(-c3ccc(C(=O)O)nc3)cc2)ccc1C(C)C [Compound 19A, 5-{4-[(1-{[3-Methyl-4-(propan-2-yl)phenyl]carbamoyl}-D-prolyl)amino]phenyl}pyridine-2-carboxylic acid] | – | 11
O=C(O)c1ccc(-c2ccc(NC(=O)[C@H]3CCCN3C(=O)Nc3ccc(C(F)(F)F)cc3)nc2)cc1 [Compound 31A, 4-{6-[(1-{[4-(Trifluoromethyl)phenyl]carbamoyl}-D-prolyl)amino]pyridin-3-yl}benzoic acid] | – | 7.8
